# According to US6376511B2, “8-aminoquinolines” (The University of Mississippi, priority 1999, dated 2002):
# Read-outs that look alike come from different tables or passages of the source.
# Legend:
# [1] = system: Plasmodium berghei KBG-173; type: in vivo; settings: for Mice surviving 60 days/Mice infected and treated: P. berghei in mice; for Parasitemia Day 6: percentage of red blood cells with parasites, control 31.8
# Procedure: Blood Schizontocidal Test (Trophozoite-Induced Plasmodium berghei Infection in mice University of Miami, Test System: Thompson Test
# Drugs were mixed in 0.5% hydroxycellulose 0.1% Tween 80 and administered orally b.i.d. on days 3, 4 and 5 postinfection. CD-1 male or female mice, 5 weeks of age, were infected with 5×10^4 parasitized erythrocytes of Plasmodium berghei KBG-173 mm strain. Blood films were taken on day +6 and weekly thereafter until day +60. Parasitemias were calculated and SD90 value (dose suppressing 90% of the parasites in treated groups compared with the infected non-treated controls) on day +6 postinfection. Mortality data was tabulated for 60 days at which time all mice surviving that were blood film negative were considered cured.
# […] The activity of these compounds were compared with the untreated control and “racemate” which is a mixture of equal amount of each enantiomer X and Y. In untreated controls, death occurs within 8-9 days. Compounds which are effective against Plasmodium berghei infection increase the mean survival time of the infected animals when compared with the untreated controls. Mice that survive after thirty days and are free of parasites in blood are considered cured.
# Efficacy of the drug is determined by the number of cures at the end of a 30 day period and the increase in mean survival time over the control (ΔMST). The effect of the test drugs also could be determined by the reduction of the parasitemia (percentage of the red blood cells detected with the parasites) over the untreated control on day 6, one day after the treatment is completed. Both these methods yield virtually identical results. If the dose of test compounds are inadequate, after initial clearance, residual parasites will multiply and relapses will occur within thirty days. The blood schizontocidal activities (suppressive antimalarial) of X, Y, and racemate against P. berghei in mice are shown in Table 11.
# [2] = mice; cited from earlier work
# Pneumocystis carinii = assay: Anti-Pneumocystis carinii test (induced Pneumocystis carinii infection in immunosuppressed mice), oral; type: in vivo; settings: for Number of animals with organism after treatment/Number of animals treated, Giesma Stain: mice (Table 8); for Giemsa Stain Score / Silver stain Score / Giemsa Stain I/T (animals with organism after treatment/animals treated) / Silver stain I/T (animals with organism after treatment/animals treated): mice; for Giemsa Stain Score / Silver stain Score: mean score on 0 to 5+ scale
# L. donovani Chagasi PP75 = assay: In vitro anti-Leishmania activity, Giemsa counts; type: cell-based; settings: 1350 ng/mL; control 6.35
# [3] = system: trypanosome isolate EATRO Lab 110; assay: Antitrypanosomal activity, trypanosome isolates grown as blood forms in HMI-18; type: cell-based, Trypanosoma; settings: EATRO Lab 110, after 48 h, 20% horse serum, read-out: IC50
# Procedure: (§1) Compounds were tested vs. trypanosome isolates grown as blood forms in HMI-18 (Hirumi H., Hirumi, K. 1989. Continuous Cuitivation of Trypanosoma brucei bloodstream forms in a medium containing a low concentration of serum portein without feeder cell layers. J. Parasitol. 75:985-989) containing 20% horse serum.
# [4] = system: trypanosome isolate KETRI 243As103; assay: as above; type: cell-based, Trypanosoma; settings: KETRI 243As103, after 48 h, 20% horse serum; succinate
# Procedure: as §1
# [5] = system: trypanosome isolate KETRI 269; assay: as above; type: cell-based, Trypanosoma; settings: KETRI 269, after 48 h, 20% horse serum, read-out: IC50
# Procedure: as §1
# [6] = system: trypanosome isolate KETRI 243; assay: as above; type: cell-based, Trypanosoma; settings: KETRI 243, after 48 h, 20% horse serum; succinate; read-out: IC50
# Procedure: as §1
# [7] = system: Plasmodium berghei KBG-173; assay: Prophylactic test, Plasmodium berghei infection in mice, oral; type: in vivo; settings: single dose of 2 mg/kg
# Text: CD-I male or female mice, 5 weeks of age, were infected with 5×10^4 parasitized erythrocytes ot Plasmodium berghei KBG-173 mm strain. Blood films were taken on day +6 and weekly thereafter until day+30. […]
# P. cynomolgi = settings: rhesus monkey, cited from earlier work
# [8] = rhesus monkey; cited from earlier work
# [9] = oral dose 1 mg/kg/day (total dose 3 mg/kg)
# [10] = oral dose 4 mg/kg/day (total dose 12 mg/kg)
# [11] = oral dose 16 mg/kg/day (total dose 48 mg/kg)
# [12] = oral dose 64 mg/kg/day (total dose 192 mg/kg)
# [13] = 0.25 mg/kg/day, 0.75 mg/kg total, succinate
# [14] = 1 mg/kg/day, 3 mg/kg total, succinate
# [15] = 4 mg/kg/day, 12 mg/kg total, succinate
# [16] = oral 0.25 mg/kg/day (x21), succinate, 0.25 mg/kg/day
compound,measurement,setting,value
CCCCCOc1c(OC)cc(NC(C)CCCN)c2nccc(C)c12 (stereo not drawn) [Compound 4],Mice surviving 60 days/Mice infected and treated,[1]; [9],7/7
same,Mice surviving 60 days/Mice infected and treated,[1]; [10],7/7
same,Mice surviving 60 days/Mice infected and treated,[1]; [11],4/7
same,Mice surviving 60 days/Mice infected and treated,[1]; [12],0/7
"COc1cc(NC(C)CCCN)c2ncccc2c1 (single isomer, unassigned; (+)) [(+) Primaquine, reference compound]",toxicity relative to the l-form,[2],approximately 4 times
same,"Number of animals with organism after treatment/Number of animals treated, Giesma Stain",Pneumocystis carinii; oral 2 mg/kg/day (x21),10/10
same,"Number of animals with organism after treatment/Number of animals treated, Giesma Stain","Pneumocystis carinii; oral 5 mg/kg/day (x21), listed as (+) Enantiomer, 5 mg/kg/day",7/10
same,"Number of animals with organism after treatment/Number of animals treated, Giesma Stain","Pneumocystis carinii; oral 10 mg/kg/day (x21), listed as (+) Enantiomer, 10 mg/kg/day",1/10
"O=C1C(O)=C([C@H]2CC[C@H](c3ccc(Cl)cc3)CC2)C(=O)c2ccccc21 [Atovaquone, reference compound]",Giemsa Counts,L. donovani Chagasi PP75,5.05 ± 0.21
"COc1cc(C)c2c(Oc3cccc(C(F)(F)F)c3)c(OC)cc(NC(C)CCCN)c2n1 (stereo not drawn) [WR-238,605, reference compound]",Mice surviving 60 days/Mice infected and treated,[1]; [9],0/7
same,Mice surviving 60 days/Mice infected and treated,[1]; [10],1/7
same,Mice surviving 60 days/Mice infected and treated,[1]; [11],7/7
same,Mice surviving 60 days/Mice infected and treated,[1]; [12],1/7
"COc1cc(NC(C)CCCN)c2nccc(C)c2c1Oc1ccc(Cl)c(Cl)c1 (single isomer, unassigned; (+)) [X, (+) 8-[(4-amino-1-methylbutyl)amino]-5-(3,4-dichlorophenoxy)-6-methoxy-4-methylquinoline succinate]",IC50,"[3]; Trypanosoma, 48 h",8.3 µM
same,IC50,[4],36 µM
same,IC50,"[5]; Trypanosoma, 48 h",37 µM
same,IC50,[6],34 µM
same,Mice surviving day 60/Mice infected and treated,"[7]; day of treatment 2 (Table 5), listed as X Enantiomer, succinate, 2 mg/kg",0/5
same,Mice surviving day 60/Mice infected and treated,"[7]; day of treatment -2 (Table 5), listed as X Enantiomer, succinate, 2 mg/kg",0/5
same,Mice surviving day 60/Mice infected and treated,[7]; day of treatment -3 (Table 5),0/5
same,Mice surviving day 60/Mice infected and treated,[7]; day of treatment -4 (Table 5),0/5
same,Mice surviving day 60/Mice infected and treated,[7]; day of treatment -5 (Table 5),0/5
same,Parasitemia Day 6,[1]; [13],28.2
same,Mice Alive Day 26,[1]; [13],0/5
same,ΔMST (increase in mean survival time over the control),[1]; [13],0 days
same,ΔMST (increase in mean survival time over the control),"[1]; 1 mg/kg/day, 3 mg/kg total",6 days
same,Parasitemia Day 6,[1]; [14],27.4
same,Mice Alive Day 26,[1]; [14],0/5
same,ΔMST (increase in mean survival time over the control),"[1]; 4 mg/kg/day, 12 mg/kg total",11 days
same,Parasitemia Day 6,[1]; [15],1.1
same,Mice Alive Day 26,[1]; [15],0/5
same,Giemsa Stain Score,Pneumocystis carinii; [16],0.55 ± 0.16
same,Silver stain Score,Pneumocystis carinii; [16],1.15 ± 0.16
same,Giemsa Stain I/T (animals with organism after treatment/animals treated),Pneumocystis carinii; [16],6/10
same,Silver stain I/T (animals with organism after treatment/animals treated),Pneumocystis carinii; [16],10/10
same,Giemsa Stain I/T (animals with organism after treatment/animals treated),Pneumocystis carinii; oral 0.5 mg/kg/day (x21),2/10
same,Silver stain I/T (animals with organism after treatment/animals treated),Pneumocystis carinii; oral 0.5 mg/kg/day (x21),2/10
same,Giemsa Stain Score,Pneumocystis carinii; oral 0.5 mg/kg/day (x21),0.20 ± 0.10
same,Silver stain Score,Pneumocystis carinii; oral 0.5 mg/kg/day (x21),0.1 ± 0.1
same,Giemsa Stain I/T (animals with organism after treatment/animals treated),Pneumocystis carinii; oral 1 mg/kg/day (x21),0/10
same,Silver stain I/T (animals with organism after treatment/animals treated),Pneumocystis carinii; oral 1 mg/kg/day (x21),0/10
same,Giemsa Stain Score,Pneumocystis carinii; oral 1 mg/kg/day (x21),0.0
same,Silver stain Score,Pneumocystis carinii; oral 1 mg/kg/day (x21),0.0
same,Giemsa Stain I/T (animals with organism after treatment/animals treated),Pneumocystis carinii; oral 5 mg/kg/day (x21),0/10
same,Silver stain I/T (animals with organism after treatment/animals treated),Pneumocystis carinii; oral 5 mg/kg/day (x21),0/10
same,Giemsa Stain Score,Pneumocystis carinii; oral 5 mg/kg/day (x21),0.0
same,Silver stain Score,Pneumocystis carinii; oral 5 mg/kg/day (x21),0.0
"COc1cc(NC(C)CCCN)c2ncccc2c1 (stereo not drawn) [Primaquine, reference compound]",Monkeys infected and treated/cured,"P. cynomolgi; 0.316 mg/kg/day x7, orally",0/2
same,Monkeys infected and treated/cured,"P. cynomolgi; 1.0 mg/kg/day x7, orally",1/2
same,Mice surviving 60 days/Mice infected and treated,[1]; [9],0/7
same,Mice surviving 60 days/Mice infected and treated,[1]; [10],0/7
same,Mice surviving 60 days/Mice infected and treated,[1]; [11],1/7
same,Mice surviving 60 days/Mice infected and treated,[1]; [12],3/7
same,"Number of animals with organism after treatment/Number of animals treated, Giesma Stain","Pneumocystis carinii; oral 5 mg/kg/day (x21), 5 mg/kg/day",10/10
same,"Number of animals with organism after treatment/Number of animals treated, Giesma Stain","Pneumocystis carinii; oral 10 mg/kg/day (x21), 10 mg/kg/day",5/10
"COc1cc(NC(C)CCCN)c2nccc(C)c2c1Oc1cccc(C(F)(F)F)c1 (stereo not drawn) [WR-225,448, reference compound]",Mice surviving 60 days/Mice infected and treated,[1]; [9],7/7
same,Mice surviving 60 days/Mice infected and treated,[1]; [10],7/7
same,Mice surviving 60 days/Mice infected and treated,[1]; [11],7/7
same,Mice surviving 60 days/Mice infected and treated,[1]; [12],4/7
"COc1cc(NC(C)CCCN)c2nccc(C)c2c1Oc1ccc(Cl)c(Cl)c1 (single isomer, unassigned; (-)) [Y, (−)-8-[(4-amino-1-methylbutyl)amino]-5-(3,4-dichlorophenoxy)-6-methoxy-4-methylquinoline succinate]",IC50,[3]; succinate,13.5 µM
same,IC50,[4],17.5 µM
same,IC50,[5]; succinate,27 µM
same,IC50,[6],11 µM
same,Mice surviving day 60/Mice infected and treated,"[7]; day of treatment 2 (Table 5), listed as Y Enantiomer, succinate, 2 mg/kg",5/5
same,Mice surviving day 60/Mice infected and treated,"[7]; day of treatment -2 (Table 5), listed as Y Enantiomer, succinate, 2 mg/kg",1/5
same,Mice surviving day 60/Mice infected and treated,[7]; day of treatment -3 (Table 5),0/5
same,Mice surviving day 60/Mice infected and treated,[7]; day of treatment -4 (Table 5),0/5
same,Mice surviving day 60/Mice infected and treated,[7]; day of treatment -5 (Table 5),0/5
same,Parasitemia Day 6,[1]; [13],0.2
same,Mice Alive Day 26,[1]; [13],0/0
same,ΔMST (increase in mean survival time over the control),[1]; [13],11.6 days
same,Parasitemia Day 6,[1]; [14],0.0
same,Mice Alive Day 26,[1]; [14],4/5
same,ΔMST (increase in mean survival time over the control),[1]; [14],13.6 days
same,Parasitemia Day 6,[1]; [15],0.0
same,Mice Alive Day 26,[1]; [15],5/5
same,"activity in the mouse model of PCP, enantiomer comparison",Pneumocystis carinii; (−) versus (+) enantiomer of DN3-27-1,significantly greater activity than the (+) enantiomer
same,Giemsa Stain Score,Pneumocystis carinii; [16],0.0
same,Silver stain Score,Pneumocystis carinii; [16],0.0
same,Giemsa Stain I/T (animals with organism after treatment/animals treated),Pneumocystis carinii; [16],0/10
same,Silver stain I/T (animals with organism after treatment/animals treated),Pneumocystis carinii; [16],0/10
same,Giemsa Stain I/T (animals with organism after treatment/animals treated),Pneumocystis carinii; oral 1 mg/kg/day (x21),0/10
same,Silver stain I/T (animals with organism after treatment/animals treated),Pneumocystis carinii; oral 1 mg/kg/day (x21),0/10
same,Giemsa Stain Score,Pneumocystis carinii; oral 1 mg/kg/day (x21),0.0
same,Silver stain Score,Pneumocystis carinii; oral 1 mg/kg/day (x21),0.0
same,Giemsa Stain I/T (animals with organism after treatment/animals treated),Pneumocystis carinii; oral 5 mg/kg/day (x21),0/10
same,Silver stain I/T (animals with organism after treatment/animals treated),Pneumocystis carinii; oral 5 mg/kg/day (x21),0/10
same,Giemsa Stain Score,Pneumocystis carinii; oral 5 mg/kg/day (x21),0.0
same,Silver stain Score,Pneumocystis carinii; oral 5 mg/kg/day (x21),0.0
"COc1cc(NC(C)CCCN)c2ncccc2c1 (single isomer, unassigned; (-)) [(−) Primaquine, reference compound]",toxicity relative to d-primaquine,[8],3 to 5 times
same,toxicity relative to racemic primaquine,[8],at least twice as toxic
same,"Number of animals with organism after treatment/Number of animals treated, Giesma Stain","Pneumocystis carinii; oral 5 mg/kg/day (x21), listed as (−) Enantiomer, 5 mg/kg/day",10/10
same,"Number of animals with organism after treatment/Number of animals treated, Giesma Stain","Pneumocystis carinii; oral 10 mg/kg/day (x21), listed as (−) Enantiomer, 10 mg/kg/day",10/10
